Patent US11085056B2, “Transfection complexes and methods of using the same” (MOLECULAR TRANSFER, INC., priority 2015, dated 2021)

Assays:
HeLa Cells [1] = assay: Transfection of HeLa cells with DOTMA/DOPE/peptide and eGFP plasmid, fluorescent plate reader; type: cell-based; conditions: DOTMA/DOPE 1:1 plus peptide with RRRRRRRRRRRR (SEQ ID NO: 109) at n terminus; EF1Alpha eGFP plasmid; 0.01 mL complex; 42 hours
Description: (§1) Cells were plated to so that on the day of transfection the cells were 60-70% confluent in 96 well tissue culture plates. A DOMTA/DOPE Lipid solution (1:1 molar ratio) at 2 mg/mL in water were mixed with an equal volume of surface ligand peptides that had the nucleic acid binding moiety RRRRRRRRRRRR (SEQ ID NO: 109) covalently linked to the n terminus of each peptide during peptide synthesis. Peptides were at 2 mg/mL in water. The DOTMA/DOPE and the surface ligand peptide solution the transfection reagent was diluted 1 to 1 (v/v) in water. DOMTA/DOPE/PEPTIDE solutions were added to 0.1 mL of a plasmid DNA solution (EF1Alpha eGFP plasmid) at 5 μg/mL in OptiMEM. Lipofectamine 2000 was obtained from Life Technologies.
(§2) All solutions were at room temperature. A volume of 0.2 mL of a 5 μg/mL solution of DNA was aliquoted into each well of a non-tissue cultured treated plate. 4.0 μL of transfection reagents were added to DNA solutions respectively. The transfection reagent and DNA solution was mixed by pipetting up and down twice. Transfection complexes were formed for 10 minutes. After 10 minutes, 0.01 or 0.02 mL of the transfection complex was added to cells. HuVEC, HeLa, human adult keratinocytes, human primary adult fibroblast, and rat cortical neurons all respectively received 0.01 mL of the tramsfectopm complex. Human skeletal muscle cells, mouse C2C12 cells, Jurkat, and THP-1 cells received 0.02 mL of the transfection complex. Cells were incubated for 42 hours at 37° C. at 5% CO2. Plates were read on a fluorescent plate reader. Cells were also examined visually under a microscope to assess the extent of transfection (in terms of the percent of cells transfected) with a fluorescent microscope. Other modes of analysis, for example quantification with B-galactosidase or luciferase reports plasmids can also be used. […] Surface ligand that caused increase expression of GFP over the lipid DOTMA with no surface ligand were considered to enhance transfection or had higher % cells transfected were considered to enhance transfection. Peptides that gave greater than 2 fold enhancement are noted in bold and could be further optimized by adding different transfection enhancers or could be used with different cationic lipids or polymers.

HuVec Cells = assay: Transfection of HuVec cells with DOTMA/DOPE/peptide and eGFP plasmid, fluorescent plate reader; type: cell-based; conditions: DOTMA/DOPE 1:1 plus peptide with RRRRRRRRRRRR (SEQ ID NO: 109) at n terminus; EF1Alpha eGFP plasmid; 0.01 mL complex; 42 hours
Description: as §1, §2

NL-1 iPS Cells = assay: Transfection of NL-1 iPS cells with DOTMA/DOPE/peptide and eGFP plasmid, fluorescent plate reader; type: cell-based; conditions: DOTMA/DOPE 1:1 plus peptide with RRRRRRRRRRRR (SEQ ID NO: 109) at n terminus; EF1Alpha eGFP plasmid; 42 hours
Description: as §1, §2

C2C12 Cells = assay: Transfection of C2C12 cells with DOTMA/DOPE/peptide and eGFP plasmid, fluorescent plate reader; type: cell-based, mouse; conditions: DOTMA/DOPE 1:1 plus peptide with RRRRRRRRRRRR (SEQ ID NO: 109) at n terminus; EF1Alpha eGFP plasmid; 0.02 mL complex; 42 hours
Description: as §1, §2

Human Fibroblast Cells = assay: Transfection of human fibroblast cells with DOTMA/DOPE/peptide and eGFP plasmid, fluorescent plate reader; type: cell-based; conditions: DOTMA/DOPE 1:1 plus peptide with RRRRRRRRRRRR (SEQ ID NO: 109) at n terminus; EF1Alpha eGFP plasmid; 0.01 mL complex; 42 hours
Description: as §1, §2

Jurkat Cells = assay: Transfection of Jurkat cells with DOTMA/DOPE/peptide and eGFP plasmid, fluorescent plate reader; type: cell-based; conditions: DOTMA/DOPE 1:1 plus peptide with RRRRRRRRRRRR (SEQ ID NO: 109) at n terminus; EF1Alpha eGFP plasmid; 0.02 mL complex; 42 hours
Description: as §1, §2

HeLa Cells [2] = assay: Transfection of HeLa cells with DOTMA/SEQ ID NO: 72/peptide compared with Lipofectamine 2000; type: cell-based; conditions: fusogenic peptide 0.1 mg/mL
Description: as §1, §2
The fusogenic peptide was added to the DOMTA/peptide formulation to achieve a final concentration of 0.1 mg/mL to see if transfection reagents were further enhanced by the addition of a fusogenic peptide and could provide higher transfection efficiency into HeLa cells and expression than the commercially available Lipofectamine 2000.

some examined cell types = assay: Transfection expression and % cells transfected over the no peptide control; type: cell-based; conditions: on some examined cell types
Description: as §1, §2

[3] = 0.1 μL of DOTMA/SEQ ID NO: 72/Peptide in well of a 96 well plate
[4] = 0.2 μL of DOTMA/SEQ ID NO: 72/Peptide in well of a 96 well plate
[5] = 0.3 μL of DOTMA/SEQ ID NO: 72/Peptide in well of a 96 well plate
[6] = 0.4 μL of DOTMA/SEQ ID NO: 72/Peptide in well of a 96 well plate

Row | Substance | RF (Relative Fluorescence) of Transfection of HeLa Cells (HeLa Cells [1]) | RF (Relative Fluorescence) of Transfection of HuVec Cells (HuVec Cells) | RF (Relative Fluorescence) of Transfection of NL-1 iPS Cells (NL-1 iPS Cells) | RF (Relative Fluorescence) of Transfection of C2C12 Cells (C2C12 Cells) | RF (Relative Fluorescence) of Transfection of Human Fibroblast Cells (Human Fibroblast Cells) | RF (Relative Fluorescence) of Transfection of Jurkat Cells (Jurkat Cells) | RF (Relative Fluorescence), DOTMA/SEQ ID NO: 72/Peptide, HeLa Cells (HeLa Cells [2]; [3]) | RF (Relative Fluorescence), DOTMA/SEQ ID NO: 72/Peptide, HeLa Cells (HeLa Cells [2]; [4]) | RF (Relative Fluorescence), DOTMA/SEQ ID NO: 72/Peptide, HeLa Cells (HeLa Cells [2]; [5]) | RF (Relative Fluorescence), DOTMA/SEQ ID NO: 72/Peptide, HeLa Cells (HeLa Cells [2]; [6]) | transfection expression and the % cells transfected over the no peptide control (some examined cell types)
1 | 344 (KGHRGF; Peptidic transfection agent) [compound 344] | 14415 | 11867 | 10895 | 1678 | 12704 | 10160 | 13315 | 16387 | 12564 | 12511 | increased
2 | 357 (SETTVKYIFRLHE; Peptidic transfection agent) [compound 357] | 22679 | 6009 | 15624 | 4506 | 7167 | 2256 | 7718 | 11798 | 9229 | 9107 | increased
3 | 347 (DLGTAGSCLRKFSTM; Peptidic transfection agent) [compound 347] | 22527 | 20728 | 21865 | 4457 | 9255 | 17720 | 23188 | 21493 | 16814 | 14140 | increased
4 | 230 (WQPPRARI; Peptidic transfection agent) [compound 230] | 8944 | 9067 | 14524 | 2606 | 11771 | 10229 | – | – | – | – | increased
5 | 354 (SINNTAVMQRLT; Peptidic transfection agent) [compound 354] | 4403 | 19284 | 24043 | 1912 | 4998 | 16705 | – | – | – | – | increased
6 | 327 (VAEIDGIEL; Peptidic transfection agent) [compound 327] | 5345 | 21018 | 31383 | 2043 | 4662 | 14546 | – | – | – | – | increased
7 | 229 (PPFLMLLKGSTR; Peptidic transfection agent) [compound 229] | 8816 | 5452 | 13491 | 1164 | 6811 | 8079 | – | – | – | – | increased
